# What was measured:
# [1] = tested on: cataleptic rat; assay: Reversal of catalepsy in rats (oral ED50); format: in vivo; conditions: rats; for ED50: Rattus norvegicus, read-out: oral ED50 value (calculated dose to reverse catalepsy by 50%); for ED50 / oral ED50 value (calculated dose to reverse catalepsy by 50%): oral
# Method: Extrapyramidal motor side effects in e.g. rodents are measured by the ability of a drug to induce catalepsy. Catalepsy is defined as a state where an animal continues to remain in an unnormal (nonphysiological ‘uncomfortable’) posture for a long time (e.g.: M. E. Stanley and S. D. Glick, Neuropharmacology, 1996; 15: 393-394; C. J. E. Niemegeers and P. Janssen, Life Sci., 1979, […]). For example, if a hindpaw of a rat is placed on an elevated level, e.g. a platform elevated 3 cm above ground level, a normal rat immediately withdraws the hindpaw from the platform to the ground level. A cataleptic rat remains in this unnatural posture even for minutes.
# [2] = tested on: advanced Parkinson patients; conditions: cited from earlier work
# [3] = tested on: patients with advanced idiopathic Parkinson's disease complicated by “peak-dose” dyskinesia; assay: Double-blind add-on study in advanced idiopathic Parkinson's disease with peak-dose dyskinesia (diary card); format: in vivo, human; conditions: 2.5 to 10 mg b.i.d., typical study
# Description: A typical study to investigate the efficacy of the compounds according to the invention for adverse effects in Parkinson's disease is described in the following. 40 patients of either sex with advanced idiopathic Parkinson's disease complicated by “peak-dose” dyskinesia participate in a double-blind study. The main inclusion criteria are Hoehn & Yahr stage≧2.5 (lit.: Hoehn H. M. et al, Neurology 1967; 17: 427-442), aged 40-75 years, symptom duration of at least 5 years, and a l-dopa treatment duration of at least 3 years. (−)-(R)-2-{4-[[3,4-dihydro-2H-benzopyran-2-yl)-methyl]amino]butyl}-1,2-benzoisothiazol-3-(2H)-on-1,1-dioxide monohydrochloride or placebo is administered as “add on” to the conventional Parkinson treatment, which is maintained unchanged during the whole study. The dose of blinded medication is titrated over a period of 3 weeks in a range from 2.5 to 10 mg b.i.d. Then the medication is kept constant for 3 weeks. Before the start of titration and at the end of the treatment period the patients fill a diary card in 30 min. inervalls for 48 hours. The diary card differentiates 5 different states: (1) “on” without dyskinesia, (2) “on” with troublesome dyskinesia, (3) “on” with non-troublesome dyskinesia, (4) “off” time, and (5) time asleep (Hauser RA et al., Clin. Neuropharmacol., 2000, 23, 75-81). The primary outcome variable of the protocol is the change in “on” time with troublesome dyskinesia. […] The other parameters are not changed.
# [4] = tested on: MSA patients; assay: Add-on study in MSA patients (UPDRS); format: in vivo, human; conditions: 1 to 20 mg t.i.d., typical study
# Method: The study design is similar to that described above for Parkinson's disease. (−)-(R)-2-{4-[[3,4-dihydro-2H-benzopyran-2-yl)-methyl]amino]butyl}-1,2-benzoisothiazol-3-(2H)-on-1,1-dioxide monohydrochloride or placebo is titrated as “add on” to the conventional treatment (dose range 1 to 20 mg t.i.d.). After a double-bllind dose-finding phase of 3 weeks during which the individual dose is identified for each patient on the basis of tolerability and efficacy, the dose is maintained unchanged for 3 additional weeks. Before the start of titration and at the end of the treatment period a complete UPDRS assessment is performed in each patient (primary outcome measure).
# [5] = tested on: patients with cervical dystonia (spasmodic torticollis); assay: Double-blind placebo-controlled study in cervical dystonia (TWSTRS); format: in vivo, human; conditions: 2.5 mg to 20 mg b.i.d.
# [6] = tested on: schizophrenic inpatients on long-term antipsychotic treatment; assay: Cross-over add-on study in tardive dyskinesia (AIMS); format: in vivo, human; conditions: up to 20 mg t.i.d., vs placebo period, typical study
# Description: Tardive dyskinesia is a common adverse effect of long-term treatment with neuroleptics. A typical study to investigate the efficacy of the compounds according to the invention in tardive dyskinesia is described in the following. 32 schizophrenic (DSM-III-R) inpatients aged 25-60 years on long-term stable antipsychotic treatment (duration of at least 5 years) entered the study. (−)-(R)-2-{4-[[3,4-dihydro-2H-benzopyran-2-yl)-methyl]amino]butyl}-1,2-benzoisothiazol-3-(2H)-on-1,1-dioxide monohydrochloride or placebo is administered as “add on” to the antipsychotic treatment, which is kept constant during the whole study. The dose of blinded medication is titrated over a period of 3 weeks in a range from I to 20 mg t.i.d. Then the medication is maintained under double-blind conditions for 2 weeks. After a 2-week wash-out period, the test drugs are crossed over. Assessments of tardive dyskinesia by means of the Abnormal Involuntary Movement Scale (AIMS, see above) and of Parkinsonian extrapyramidal side effects (UPDRS, see above) are made pretreatment and posttreatment.
structure (smiles),measurement,setting,value
O=C1c2ccccc2S(=O)(=O)N1CCCCN1CCN(c2ncccn2)CC1 [ipsapirone],ED50,[1],23 mg/kg
O=C1[C@@H]2[C@H]3CC[C@H](C3)[C@@H]2C(=O)N1CCCCN1CCN(c2ncccn2)CC1 [tandosirone],oral ED50 value (calculated dose to reverse catalepsy by 50%),[1],60 mg/kg
O=C1CC2(CCCC2)CC(=O)N1CCCCN1CCN(c2ncccn2)CC1 [buspirone],ED50,[1],30 mg/kg
same,anti-dyskinetic properties,[2],moderate anti-dyskinetic properties
"Cl.O=C1c2ccccc2S(=O)(=O)N1CCCCNC[C@H]1CCc2ccccc2O1 [(−)-(R)-2-{4-[[3,4-dihydro-2H-benzopyran-2-yl)-methyl]amino]butyl}-1,2-benzoisothiazol-3-(2H)-on-1,1-dioxide monohydrochloride]",oral ED50 value (calculated dose to reverse catalepsy by 50%),[1],"0,6 mg/kg"
same,potency in reversing catalepsy compared to other 5-HT1A agonists,"[1]; oral ED50 vs ipsapirone, buspirone, gepirone, tandosirone",30-100 times
same,other diary parameters,[3],not changed
same,“on” time with troublesome dyskinesia,[3],significant reduction
same,“on” time without dyskinesia,[3],significantly increase
same,UPDRS (Parkinson symptoms),[4],significant clinical improvement of Parkinson symptoms
same,TWSTRS scores,[5],significant improvement
same,AIMS scores,[6],significantly lower than during placebo period
CC1(C)CC(=O)N(CCCCN2CCN(c3ncccn3)CC2)C(=O)C1 [gepirone],ED50,[1],16 mg/kg
